Results published in PMC4821887, “Identification of chemicals that mimic transcriptional changes associated with autism, brain aging and neurodegeneration” (Nature Communications, 2016).

Test system: mouse cortical cultures
Test: RNA-seq differential expression (DESeq) against matched vehicle
Format: cell-based
Set-up: key to MeanFenamidone Bcl11b / MeanFenamidone Slc12a4 / MeanFenamidone Abca1 / MeanFenamidone Hmox1 / MeanFenamidone Il1rap / MeanFenamidone Cyba / MeanFenamidone Narf / MeanFenamidone Bnip3 / MeanFenamidone Amotl2 / MeanFenamidone Gad2 / MeanFenamidone Vsnl1 / MeanFenamidone Fam178a: DESeq mean of counts over RefSeq exons
Procedure: Figure 4 Cluster 2 chemicals alter expression of a common set of genes. […] RNA-seq was performed in quadruplicate after treating cortical cultures with fenamidone (10 μM) or pyraclostrobin (0.1 μM) for 24 h (n=3 biological replicates) and compared with matched vehicle controls using DESeq to detect differentially expressed genes, listed in Supplementary Data 4.
Cultures were treated with the non-cytotoxic dose of each chemical, by exchanging half of the original medium with chemicals at 2 × concentration in prewarmed feeding medium, on DIV 7 for 24 h in 12-well plates at a density of 5 × 10^5 cells per well. RNA was isolated using RNeasy plus mini kit (Cat. #74134, Qiagen). […]. Samples were further assessed for quality using either an Agilent Bioanalyzer 2100 or TapeStation 2200 to obtain a RIN. RIN values exceeding 7 were used for sequencing. RNA samples were used to generate and barcode complementary DNA libraries using the TruSeq RNA Library Preparation Kit at the UNC High Throughput Sequencing Facility. Pools of 24 multiplexed samples were sequenced per lane on an Illumina HiSeq 2500 using 50-bp paired-end reads.
RNA-seq reads were filtered using TagDust and aligned to the reference mouse genome (mm9) with TopHat using default parameters. Reads aligning to ribosomal RNA genes were removed. Transcript abundance was estimated by computing Reads per kilobase per million mapped reads (RPKM) using RefSeq gene models aggregated by gene symbol. For differential expression analyses, raw counts over RefSeq exons were used, and then were compared across samples using DESeq[62].

CSC1=N[C@@](C)(c2ccccc2)C(=O)N1Nc1ccccc1 [fenamidone]
Differentially expressed genes (DESeq) compared between the two fungicides (fenamidone 10 μM or pyraclostrobin 0.1 μM, 24 h): up- and downregulate a largely overlapping set of genes
MeanFenamidone (DESeq mean normalized counts) (gene 2810011L19Rik, Fenamidone, 4 reps, vs matched vehicle): 45.3905
MeanFenamidone (gene 3632451O06Rik): 64.8489
log2FoldChange (gene 3632451O06Rik): -1.594
MeanFenamidone (gene 4931428F04Rik): 315.322
log2FoldChange (gene 4931428F04Rik): -1.331
MeanFenamidone (gene 4933426M11Rik): 495.966
log2FoldChange (gene 4933426M11Rik): 1.2253
MeanFenamidone 9930013L23Rik (gene 9930013L23Rik, DESeq mean, 4 reps): 645.322
log2FoldChange 9930013L23Rik (gene 9930013L23Rik, vs vehicle, 4 reps): 2.2987
MeanFenamidone AF357359 (gene AF357359, DESeq mean, 4 reps): 31.2414
log2FoldChange AF357359 (gene AF357359, vs vehicle, 4 reps): -2.02
MeanFenamidone Abca1 (gene Abca1, DESeq mean, 4 reps): 1327.24
log2FoldChange Abca1 (gene Abca1, vs vehicle, 4 reps): 1.708
MeanFenamidone Acadl (gene Acadl, DESeq mean, 4 reps): 174.046
log2FoldChange Acadl (gene Acadl, vs vehicle, 4 reps): 2.185
MeanFenamidone Acadvl (gene Acadvl, DESeq mean, 4 reps): 272.079
log2FoldChange Acadvl (gene Acadvl, vs vehicle, 4 reps): 1.576
MeanFenamidone Acsbg1 (gene Acsbg1, DESeq mean, 4 reps): 241.134
log2FoldChange Acsbg1 (gene Acsbg1, vs vehicle, 4 reps): 1.737
MeanFenamidone Acta2 (gene Acta2, DESeq mean, 4 reps): 2838.59
log2FoldChange Acta2 (gene Acta2, vs vehicle, 4 reps): 3.4285
MeanFenamidone Actn1 (gene Actn1, DESeq mean, 4 reps): 711.955
log2FoldChange Actn1 (gene Actn1, vs vehicle, 4 reps): 2.284
MeanFenamidone Adamts5 (gene Adamts5, DESeq mean, 4 reps): 85.7871
log2FoldChange Adamts5 (gene Adamts5, vs vehicle, 4 reps): 2.142
MeanFenamidone Adarb2 (gene Adarb2, DESeq mean, 4 reps): 8.295
log2FoldChange Adarb2 (gene Adarb2, vs vehicle, 4 reps): -3.192
MeanFenamidone Agap2 (gene Agap2, DESeq mean, 4 reps): 683.65
log2FoldChange Agap2 (gene Agap2, vs vehicle, 4 reps): -1.416
MeanFenamidone Ahnak (gene Ahnak, DESeq mean, 4 reps): 1224
log2FoldChange Ahnak (gene Ahnak, vs vehicle, 4 reps): 2.684
MeanFenamidone Ajuba (gene Ajuba, DESeq mean, 4 reps): 246.575
log2FoldChange Ajuba (gene Ajuba, vs vehicle, 4 reps): 2.23
MeanFenamidone (gene Akap2): 757.95
log2FoldChange (gene Akap2): 1.126
MeanFenamidone Aldh4a1 (gene Aldh4a1, DESeq mean, 4 reps): 305.431
log2FoldChange Aldh4a1 (gene Aldh4a1, vs vehicle, 4 reps): 1.584
MeanFenamidone Amotl1 (gene Amotl1, DESeq mean, 4 reps): 463.485
log2FoldChange Amotl1 (gene Amotl1, vs vehicle, 4 reps): 1.802
MeanFenamidone Amotl2 (gene Amotl2, DESeq mean, 4 reps): 666.038
log2FoldChange Amotl2 (gene Amotl2, vs vehicle, 4 reps): 1.759
MeanFenamidone (gene Anxa2): 244.58
log2FoldChange (gene Anxa2): 2.151
MeanFenamidone Anxa3 (gene Anxa3, DESeq mean, 4 reps): 244.534
log2FoldChange Anxa3 (gene Anxa3, vs vehicle, 4 reps): 3.475
MeanFenamidone Arhgap18 (gene Arhgap18, DESeq mean, 4 reps): 128.165
log2FoldChange Arhgap18 (gene Arhgap18, vs vehicle, 4 reps): 1.989
MeanFenamidone (gene Arhgdig): 118.591
log2FoldChange (gene Arhgdig): -1.355
MeanFenamidone (gene Arhgef40): 160.321
log2FoldChange (gene Arhgef40): 1.457
MeanFenamidone Asah1 (gene Asah1, DESeq mean, 4 reps): 348.017
log2FoldChange Asah1 (gene Asah1, vs vehicle, 4 reps): 1.772
MeanFenamidone Ass1 (gene Ass1, DESeq mean, 4 reps): 83.2354
log2FoldChange Ass1 (gene Ass1, vs vehicle, 4 reps): 3.013
MeanFenamidone Atf3 (gene Atf3, DESeq mean, 4 reps): 64.246
log2FoldChange Atf3 (gene Atf3, vs vehicle, 4 reps): 2.3746
MeanFenamidone Atf5 (gene Atf5, DESeq mean, 4 reps): 765.032
log2FoldChange Atf5 (gene Atf5, vs vehicle, 4 reps): 1.876
MeanFenamidone Atl1 (gene Atl1, DESeq mean, 4 reps): 97.9838
log2FoldChange Atl1 (gene Atl1, vs vehicle, 4 reps): -1.537
MeanFenamidone Axl (gene Axl, DESeq mean, 4 reps): 322.064
log2FoldChange Axl (gene Axl, vs vehicle, 4 reps): 2.208
MeanFenamidone (gene Bak1): 236.594
log2FoldChange (gene Bak1): 1.306
MeanFenamidone Bcl11b (gene Bcl11b, DESeq mean, 4 reps): 202.325
log2FoldChange Bcl11b (gene Bcl11b, vs vehicle, 4 reps): -1.501
MeanFenamidone Bhlhe41 (gene Bhlhe41, DESeq mean, 4 reps): 115.206
log2FoldChange Bhlhe41 (gene Bhlhe41, vs vehicle, 4 reps): 2.168
MeanFenamidone (gene Bmp1): 153.886
log2FoldChange (gene Bmp1): 1.3853
MeanFenamidone Bnip3 (gene Bnip3, DESeq mean, 4 reps): 102.453
log2FoldChange Bnip3 (gene Bnip3, vs vehicle, 4 reps): -1.924
MeanFenamidone (gene Bnip3l): 236.54
log2FoldChange (gene Bnip3l): -1.119
MeanFenamidone (gene Bsn): 443.744
log2FoldChange (gene Bsn): -1.148
MeanFenamidone (gene Cad): 202.997
log2FoldChange (gene Cad): 1.187
MeanFenamidone (gene Cadps): 260.197
log2FoldChange (gene Cadps): -1.6246
MeanFenamidone Cald1 (gene Cald1, DESeq mean, 4 reps): 1843.23
log2FoldChange Cald1 (gene Cald1, vs vehicle, 4 reps): 1.947
MeanFenamidone (gene Calm2): 809.868
log2FoldChange (gene Calm2): -1.097
MeanFenamidone Camk2a (gene Camk2a, DESeq mean, 4 reps): 319.844
log2FoldChange Camk2a (gene Camk2a, vs vehicle, 4 reps): -1.451
MeanFenamidone (gene Camk2n1): 296.66
log2FoldChange (gene Camk2n1): -1.023
MeanFenamidone Camk4 (gene Camk4, DESeq mean, 4 reps): 490.278
log2FoldChange Camk4 (gene Camk4, vs vehicle, 4 reps): -1.593
MeanFenamidone Camta1 (gene Camta1, DESeq mean, 4 reps): 338.624
log2FoldChange Camta1 (gene Camta1, vs vehicle, 4 reps): -1.578
MeanFenamidone Caskin2 (gene Caskin2, DESeq mean, 4 reps): 130.097
log2FoldChange Caskin2 (gene Caskin2, vs vehicle, 4 reps): 2.297
MeanFenamidone Ccdc141 (gene Ccdc141, DESeq mean, 4 reps): 72.7622
log2FoldChange Ccdc141 (gene Ccdc141, vs vehicle, 4 reps): 2.666
MeanFenamidone Ccnd3 (gene Ccnd3, DESeq mean, 4 reps): 321.074
log2FoldChange Ccnd3 (gene Ccnd3, vs vehicle, 4 reps): 1.783
MeanFenamidone Ccng1 (gene Ccng1, DESeq mean, 4 reps): 4010.45
log2FoldChange Ccng1 (gene Ccng1, vs vehicle, 4 reps): 1.5262
MeanFenamidone Cd63 (gene Cd63, DESeq mean, 4 reps): 136.407
log2FoldChange Cd63 (gene Cd63, vs vehicle, 4 reps): 2.342
MeanFenamidone Cd68 (gene Cd68, DESeq mean, 4 reps): 127.152
log2FoldChange Cd68 (gene Cd68, vs vehicle, 4 reps): 2.839
MeanFenamidone Cd151 (gene Cd151, DESeq mean, 4 reps): 686.042
log2FoldChange Cd151 (gene Cd151, vs vehicle, 4 reps): 1.998
MeanFenamidone Cdc42ep1 (gene Cdc42ep1, DESeq mean, 4 reps): 242.014
log2FoldChange Cdc42ep1 (gene Cdc42ep1, vs vehicle, 4 reps): 2.019
MeanFenamidone Cdkl2 (gene Cdkl2, DESeq mean, 4 reps): 148.718
log2FoldChange Cdkl2 (gene Cdkl2, vs vehicle, 4 reps): -1.498
MeanFenamidone Cdkn1a (gene Cdkn1a, DESeq mean, 4 reps): 1626.53
log2FoldChange Cdkn1a (gene Cdkn1a, vs vehicle, 4 reps): 1.6849
MeanFenamidone (gene Cercam): 80.354
log2FoldChange (gene Cercam): 1.731
MeanFenamidone (gene Chga): 168.446
log2FoldChange (gene Chga): -1.21
MeanFenamidone (gene Chl1): 1683.83
log2FoldChange (gene Chl1): -1.224
MeanFenamidone (gene Ckb): 1311.75
log2FoldChange (gene Ckb): 1.6
MeanFenamidone (gene Clec7a): 31.0423
log2FoldChange (gene Clec7a): 2.927
MeanFenamidone Cln5 (gene Cln5, DESeq mean, 4 reps): 194.081
log2FoldChange Cln5 (gene Cln5, vs vehicle, 4 reps): 2.017
MeanFenamidone Cnr1 (gene Cnr1, DESeq mean, 4 reps): 426.988
log2FoldChange Cnr1 (gene Cnr1, vs vehicle, 4 reps): -1.344
MeanFenamidone Col4a5 (gene Col4a5, DESeq mean, 4 reps): 502.413
log2FoldChange Col4a5 (gene Col4a5, vs vehicle, 4 reps): 2.312
MeanFenamidone (gene Col4a6): 110.458
log2FoldChange (gene Col4a6): 2.156
MeanFenamidone Col12a1 (gene Col12a1, DESeq mean, 4 reps): 444.559
log2FoldChange Col12a1 (gene Col12a1, vs vehicle, 4 reps): 2.385
MeanFenamidone Cpeb1 (gene Cpeb1, DESeq mean, 4 reps): 116.043
log2FoldChange Cpeb1 (gene Cpeb1, vs vehicle, 4 reps): 2.171
MeanFenamidone Csf1 (gene Csf1, DESeq mean, 4 reps): 1349.7
log2FoldChange Csf1 (gene Csf1, vs vehicle, 4 reps): 2.395
MeanFenamidone Csrnp3 (gene Csrnp3, DESeq mean, 4 reps): 419.96
log2FoldChange Csrnp3 (gene Csrnp3, vs vehicle, 4 reps): -1.31
MeanFenamidone Ctnna1 (gene Ctnna1, DESeq mean, 4 reps): 850.825
log2FoldChange Ctnna1 (gene Ctnna1, vs vehicle, 4 reps): 1.929
MeanFenamidone Ctsd (gene Ctsd, DESeq mean, 4 reps): 3727.98
log2FoldChange Ctsd (gene Ctsd, vs vehicle, 4 reps): 1.609
MeanFenamidone Ctsl (gene Ctsl, DESeq mean, 4 reps): 1179.87
log2FoldChange Ctsl (gene Ctsl, vs vehicle, 4 reps): 1.543
MeanFenamidone Cyba (gene Cyba, DESeq mean, 4 reps): 37.6864
log2FoldChange Cyba (gene Cyba, vs vehicle, 4 reps): 3.26
MeanFenamidone Cyr61 (gene Cyr61, DESeq mean, 4 reps): 1421.12
log2FoldChange Cyr61 (gene Cyr61, vs vehicle, 4 reps): 2.66
MeanFenamidone D130043K22Rik (gene D130043K22Rik, DESeq mean, 4 reps): 33.8314
log2FoldChange D130043K22Rik (gene D130043K22Rik, vs vehicle, 4 reps): -1.82
MeanFenamidone Daam2 (gene Daam2, DESeq mean, 4 reps): 263.262
log2FoldChange Daam2 (gene Daam2, vs vehicle, 4 reps): 1.9757
MeanFenamidone (gene Darc): 104.469
log2FoldChange (gene Darc): -1.472
